The results in this text go back to patent publication US20170273922A1, “UREA AND BIS-UREA BASED COMPOUNDS AND ANALOGUES THEREOF USEFUL IN THE TREATMENT OF ANDROGEN RECEPTOR MEDIATED DISEASES OR DISORDERS” (THE ROYAL INSTITUTION FOR THE ADVACEMENT OF LEARNING/MCGILL …, priority 2014, published 2017).

What all share (format): cell-based
Data set [1] deals with T1, T877A mutant of full-length AR (Homo sapiens, UniProt P10275, T878A).
T1 sequence (P10275 1-920 T878A): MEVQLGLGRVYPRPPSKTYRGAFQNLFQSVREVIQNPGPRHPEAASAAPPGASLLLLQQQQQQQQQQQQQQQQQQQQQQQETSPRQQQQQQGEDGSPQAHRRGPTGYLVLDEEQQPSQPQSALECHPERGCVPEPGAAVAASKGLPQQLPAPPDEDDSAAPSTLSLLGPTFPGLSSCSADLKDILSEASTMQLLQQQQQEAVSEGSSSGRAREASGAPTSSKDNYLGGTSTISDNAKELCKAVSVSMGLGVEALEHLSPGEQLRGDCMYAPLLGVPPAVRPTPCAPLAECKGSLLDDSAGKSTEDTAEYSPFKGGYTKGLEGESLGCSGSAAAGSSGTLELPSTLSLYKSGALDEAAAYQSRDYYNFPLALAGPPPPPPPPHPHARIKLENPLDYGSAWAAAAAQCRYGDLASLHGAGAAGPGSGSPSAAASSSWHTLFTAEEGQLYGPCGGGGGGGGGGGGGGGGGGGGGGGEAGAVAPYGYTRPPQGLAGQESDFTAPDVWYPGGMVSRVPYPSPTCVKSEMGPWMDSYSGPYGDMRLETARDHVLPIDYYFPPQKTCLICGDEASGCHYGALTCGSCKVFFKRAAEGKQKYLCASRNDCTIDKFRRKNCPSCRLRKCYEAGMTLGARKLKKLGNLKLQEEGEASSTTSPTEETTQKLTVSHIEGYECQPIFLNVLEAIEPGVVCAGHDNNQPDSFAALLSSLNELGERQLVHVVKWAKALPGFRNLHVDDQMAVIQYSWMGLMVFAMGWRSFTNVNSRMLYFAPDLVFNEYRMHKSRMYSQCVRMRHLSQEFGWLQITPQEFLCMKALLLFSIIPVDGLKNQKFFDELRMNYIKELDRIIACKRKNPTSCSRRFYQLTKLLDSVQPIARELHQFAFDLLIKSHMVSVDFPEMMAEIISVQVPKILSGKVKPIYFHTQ
Kind of data set: AR T877A mutant PSA-luc reporter assay in PC3 cells. The conditions noted are these: absence of DHT, 24 h. The source says: ENZ, enzalutamide; Bic, bicalutamide; OHF, hydroxyflutamide.
On the technique in general: Reporter assays use an easily measured gene product as a stand-in for the process of interest.

A further data set concerns the target T2, IRF3DBD-AR(1-547) (Homo sapiens, UniProt P10275).
T2 construct: IRF3-AR(1-547) is the fusion of IRF3 DBD with the AR NTD (1-547); expressed in transfected cells
T2 sequence (P10275 1-547): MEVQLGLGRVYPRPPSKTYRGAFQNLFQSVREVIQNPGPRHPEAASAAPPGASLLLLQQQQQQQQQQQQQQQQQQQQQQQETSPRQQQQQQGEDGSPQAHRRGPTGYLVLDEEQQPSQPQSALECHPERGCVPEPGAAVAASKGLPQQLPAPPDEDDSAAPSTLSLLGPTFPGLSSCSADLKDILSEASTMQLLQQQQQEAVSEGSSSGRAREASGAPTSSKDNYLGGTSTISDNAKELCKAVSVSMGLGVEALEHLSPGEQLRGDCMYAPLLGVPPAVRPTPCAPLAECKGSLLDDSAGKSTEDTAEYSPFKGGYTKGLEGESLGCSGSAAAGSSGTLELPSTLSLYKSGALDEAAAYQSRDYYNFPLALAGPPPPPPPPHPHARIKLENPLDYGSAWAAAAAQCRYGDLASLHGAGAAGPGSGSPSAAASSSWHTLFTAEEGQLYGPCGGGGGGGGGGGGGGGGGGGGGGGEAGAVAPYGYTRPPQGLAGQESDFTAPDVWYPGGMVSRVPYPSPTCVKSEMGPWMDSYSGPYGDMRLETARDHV
The data set is described as follows: IRF3DBD-AR(1-547) ISRE-luc reporter assay. The note with it: PC3 cells, 24 h.

For a further data set, the target named is T3, full-length IRF3 (Homo sapiens, UniProt Q14653).
T3 construct: co-transfected with full-length IRF3 or IRF3DBD-AR(1-547) expressing plasmids; expressed in transfected cells
T3 sequence (Q14653 1-427): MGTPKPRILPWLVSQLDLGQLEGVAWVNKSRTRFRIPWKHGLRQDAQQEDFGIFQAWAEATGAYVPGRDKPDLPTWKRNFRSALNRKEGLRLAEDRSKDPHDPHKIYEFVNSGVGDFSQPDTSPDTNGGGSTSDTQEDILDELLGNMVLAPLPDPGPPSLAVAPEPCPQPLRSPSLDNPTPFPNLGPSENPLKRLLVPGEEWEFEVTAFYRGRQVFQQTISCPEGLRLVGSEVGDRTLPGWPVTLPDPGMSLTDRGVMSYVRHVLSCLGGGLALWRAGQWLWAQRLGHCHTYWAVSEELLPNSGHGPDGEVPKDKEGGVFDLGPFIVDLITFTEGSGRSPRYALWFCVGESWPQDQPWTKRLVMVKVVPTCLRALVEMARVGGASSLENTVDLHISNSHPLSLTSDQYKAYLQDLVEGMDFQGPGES
Kind of data set: Full-length IRF3 ISRE-luc reporter assay. The conditions noted are these: PC3 cells, 24 h. The source says: For all of the others, cells were co-transfected with full-length IRF3 or IRF3DBD-AR(1-547) expressing plasmids and with the ISRE-luc reporter and pRL-TK plasmids. […] As IRF3DBD-AR(1-547) contains the DBD of IRF3, ISRE-luc reporter instead of the PSA-luc reporter was used in our assays.
HEK293 cells were co-transfected with IRF3DBD(1-133) or IRF3DBD-AR(1-547) or IRF3DBD-AR(181-547) or full-length IRF3 expressing plasmids and with the ISRE-luc reporter and the Renilla luciferase pRL-TK plasmids.
Here, IRF3-AR(1-547) is the fusion of IRF3 DBD with the AR NTD (1-547). […] The plasmids expressing IRF3-AR(1-547) (A) or wild-type IRF3 (B) or IRF3 DBD (for NT) as well as ISRE-luc and pRL-TK were transiently transfected into PC3 cells. […] Bic, bicalutamide; EPI, EPI-001.

The target of data set [2] is T4, endogenous AR T877A mutant in LNCaP cells (Homo sapiens, UniProt P10275, T878A).
T4 construct: LNCaP cells, which express endogenous AR T877A mutant; endogenous in cells; host or cells: LNCaP
T4 sequence (P10275 1-920 T878A): T1 sequence (P10275 1-920 T878A)
Kind of data set: PSA-luc reporter assay in LNCaP cells (endogenous AR T877A mutant). The note with it: PSA-luc, 24 h. The procedure: Experiments were in duplicate and repeated three times. […] LNCaP cells in whole medium were exposed to DMSO vehicle control or compounds for 24 h.

Data set [3] is described as follows: MTT assay (cytotoxicity), LNCaP cells. The conditions noted are these: human, LNCaP cells, 72 h. An outline of the steps:
(§1)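 Following overnight attachment at 6-7×10^3 cells per well, cultures receive compound for 72 h in serum-containing (10% FBS) RPMI 1640. MTT then quantifies surviving cells, with each experiment done in triplicate and repeated at least twice.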
Background: Formazan colour is commonly taken as a measure of viable cells.

Data set [4] in a line: MTT assay (cytotoxicity), 22Rv1 cells. The note with it: human, 22Rv1 cells, 72 h. An outline of the steps: as §1
A short description of data set [5]: MTT assay (cytotoxicity), DU145 cells. The conditions noted are these: human, DU145 cells. The procedure: (§2) MTT assays: LNCaP, 22Rv1, Du145, H1975, A549, MB231 and MCF-7 cells are maintained in RPMI 1640 supplemented with 10% FBS. Cells were seeded at a density of 6-7×10^3 cells per well in 96-well plates. After overnight incubation, cells in fresh RPMI 1640 supplemented with 10% FBS were exposed to DMSO vehicle control or test compounds at designated concentrations for 72 h. Viable cells were evaluated by MTT assays. Experiments were performed in triplicate and repeated at least twice.

The subject of another data set is LNCaP cells. The data set is described as follows: MTT assay (cytotoxicity), LNCaP cells. A digest of the protocol: as §1
The test system of the next data set is 22Rv1 cells. Kind of data set: MTT assay (cytotoxicity), 22Rv1 cells. A digest of the protocol:
as §1

In another data set the test system is DU145 cells. The data set is described as follows: MTT assay (cytotoxicity), DU145 cells. The conditions noted are these: 72 h, Table 2.1. The procedure:
as §2

On to `CC(C)(O)C(=O)Nc1ccc([N+](=O)[O-])c(C(F)(F)F)c1` [hydroxyflutamide, reference compound], for which the “agonism of AR T877A mutant (PSA-luc)” value in data set [1] is on record as “activated”.
For `O=C(Nc1cccc(Br)c1)Nc1cc(NC(=O)Nc2cccc(C(F)(F)F)c2)cc(C(F)(F)F)c1` [Compound 973], the “inhibition of IRF3-AR(1-547)-dependent ISRE-luc reporter activity” value (“inhibition” below) on IRF3DBD-AR(1-547) is listed as “potently inhibit”. Moreover, the “activity against wild-type IRF3 (ISRE-luc)” value (“activity … (ISRE-luc)” below) on full-length IRF3 was “inactive”.
What is called IC50 is the concentration that gives 50% inhibition. Low readings indicate greater potency in that assay, high ones weaker potency in that assay. In the case of `O=C(N/C=C/c1cccc(C(F)(F)F)c1)NCc1ccc([N+](=O)[O-])cc1` [Compound 447], the “effect of increasing DHT from 1 nM to 10 nM on inhibitory activity in LNCaP cells” value in data set [2] is “not competed out”. Besides, the IC50 at 72 h in [3] (Table 2.4) came to 7.5 µM; in [4] (Table 2.4), 7.5 µM; in data set [5] (Table 2.4) it was 8 µM.
As for `O=C(Nc1cccc(C(F)(F)F)c1)Nc1ccc(F)cc1NC(=O)c1cc(Cl)ccc1F` [Compound 968], the “inhibition” value against IRF3DBD-AR(1-547) is reported as “potently inhibit”. For the same compound, the “activity … (ISRE-luc)” value on full-length IRF3 was “inactive”.
Turning to `O=C(N/C=C/c1cc(C(F)(F)F)ccc1C(F)(F)F)Nc1ccc2ncccc2c1` [Compound 517], the IC50 at 72 h is 3.4 µM in [3] (Table 2.3), over 10 µM in data set [4] (Table 2.3) and 6.2 µM in data set [5] (Table 2.3).
For `COc1cccc(/C=C/NC(=O)Nc2ccc3c(c2)OCO3)c1` [Compound 431], the half-maximal inhibitory concentration (IC50) at 72 h in data set [3] (Table 2.3) is 17.3 µM; in [4] (Table 2.3), over 20 µM; in [5] (Table 2.3) it was over 20 µM.
As to `O=C(Nc1cc(C(F)(F)F)cc(C(F)(F)F)c1)Nc1ccncn1` [Compound 578], the results for the IC50 at 72 h in [3] (Table 4.1), in data set [4] (Table 4.1) and in [5] (Table 4.1) were 1.3 µM, 5.5 µM and 2.4 µM, respectively.
On to `O=C(Nc1cc(C(F)(F)F)cc(C(F)(F)F)c1)Nc1ccc2[nH]ccc2c1` [Compound 530], for which the half-inhibitory concentration (IC50) at 72 h stood at 6 µM in data set [3] (Table 4.1), 7.1 µM in [4] (Table 4.1) and 8.3 µM in data set [5] (Table 4.1).
Consider `O=C(NCCc1cccc(C(F)(F)F)c1)Nc1ccc([N+](=O)[O-])c(C(F)(F)F)c1` [Compound 448], for which the concentration for half-maximal inhibition (IC50) at 72 h is 1.8 µM in data set [3] (Table 2.4), 4.5 µM in data set [4] (Table 2.4) and 7.5 µM in data set [5] (Table 2.4).
Consider `O=C(N/C=C/c1cc(C(F)(F)F)cc(C(F)(F)F)c1)Nc1ccc2ncccc2c1` [Compound 515], for which the IC50 at 72 h in data set [3] (Table 2.3), in [4] (Table 2.3) and in data set [5] (Table 2.3) was over 10 µM in each case.
Regarding `O=C(N/C=C/c1cccc(C(F)(F)F)c1)Nc1ccc2[nH]ccc2c1` [Compound 520], the concentration for half-maximal inhibition (IC50) at 72 h in [3] (Table 2.3) is 6.5 µM; in data set [4] (Table 2.3), over 10 µM; in data set [5] (Table 2.3), over 10 µM.
Turning to `O=C(N/C=C/c1cccc(C(F)(F)F)c1)Nc1ccc2c(c1)OCO2` [Compound 418], the concentration for half-maximal inhibition (IC50) at 72 h in data set [3] (Table 2.3), in [4] (Table 2.3) and in [5] (Table 2.3) was over 20 µM throughout.
As for `O=C(N/C=C/c1cccs1)Nc1ccc([N+](=O)[O-])c(C(F)(F)F)c1` [Compound 419], the half-maximal inhibitory concentration (IC50) at 72 h in data set [3] (Table 2.4) is 3.2 µM; in data set [4] (Table 2.4) it was 4.1 µM; in data set [5] (Table 2.4), 6.9 µM.
`O=C(N/C=C/c1cc(C(F)(F)F)cc(C(F)(F)F)c1)Nc1cnccn1` [Compound 528]: the IC50 in the data set on LNCaP cells (72 h, Table 2.1) is 0.12 µM; in the data set with LNCaP cells (LNCaP cells, 72 h treatment, Table 6.1), 0.12 µM; with 22Rv1 cells (22Rv1 cells, 72 h treatment, Table 6.1) it was under 1 µM; in the data set with 22Rv1 cells (72 h, Table 2.1) it was under 1 µM; in the data set with DU145 cells, under 1 µM. Further, the “inhibition” value against IRF3DBD-AR(1-547) is recorded as “potently inhibit”. The “activity … (ISRE-luc)” value on full-length IRF3 was “inactive”.
On to `CC(C)(C)OC(=O)n1cnc(/C=C/NC(=O)Nc2ccc([N+](=O)[O-])c(C(F)(F)F)c2)c1` [Compound 453], for which the half-inhibitory concentration (IC50) at 72 h in data set [3] (Table 2.4) was 4 µM; in [4] (Table 2.4), over 20 µM; in data set [5] (Table 2.4) it was over 20 µM.
Regarding `O=C(N/C=C/c1cc(C(F)(F)F)ccc1C(F)(F)F)Nc1cnc2ccccc2c1` [Compound 524], the IC50 at 72 h amounted to 3.4 µM in [3] (Table 2.3), 8.4 µM in data set [4] (Table 2.3) and 7.4 µM in data set [5] (Table 2.3).
